Measured values as given in US8415469B2, “Compounds and methods for kinase modulation, and indications therefor” (Plexxikon Inc., priority 2005, dated 2013).
Read-outs that look alike come from different tables or passages of the source.

Key:
Format in all cases: biochemical
Fak = target: T1, Fak (Homo sapiens, UniProt Q05397); assay: AlphaScreen kinase assay, Fak; details: read-out: IC50, activity toward kinase Fak
T1 construct: P1358.pFastBacHtb FAK S411-Q686-X; His6 with pFastBacHTb leader (TEV site) (N); made in house; host or cells: Sf9 (baculovirus)

Met = target: T2, Met (Homo sapiens, UniProt P08581); assay: AlphaScreen kinase assay, Met; details: read-out: IC50, activity toward kinase Met
T2 construct: P1818.pETN6 BI-PTP MET G1056-G1364-X WT; His6 (N); made in house; host or cells: E. coli (PTP1B co-expressed)
Excerpt: (§1) AlphaScreen assay was used to screen additional kinases. The assay is similarly dependent on the phosphorylation of a peptide substrate. In this assay, an antibody that recognizes phosphorylated substrate is bound to an acceptor bead. The peptide substrate is attached to biotin, which binds to a donor head that contains streptavidin. Thus phosphorylated substrate is bound by antibody and streptavidin, bringing the donor and acceptor heads into close proximity when kinase is not inhibited. The donor produces singlet oxygen which results in emission from the acceptor when they are in close proximity. Conversely, when kinase is inhibited, the donor and acceptor beads are not associated and the emission from the acceptor is reduced.
(§2) AlphaScreen assays were done using compounds dissolved in DMSO to a concentration of 20 mM. The compounds were diluted accordingly to the desired final concentrations in each sample well, using 1:3 serial dilution for a total of 8 concentration points.

B-Raf V600E = target: T3, B-Raf V600E (Homo sapiens, UniProt P15056, V600E); assay: AlphaScreen kinase assay, B-Raf V600E
T3 construct: P4254. pFastBacBD-CDC37 BRAF D437-K722-X, V600E; His6 with pFastBac HT leader (TEV site) (N); made in house; host or cells: Sf9 (baculovirus; chaperone CDC37 co-expressed)

Jnk1 = target: T4, Jnk1 (Homo sapiens, UniProt P45983); assay: AlphaScreen kinase assay, Jnk1; details: read-out: IC50, activity toward kinase Jnk1
T4 construct: purchased Upstate Biotechnology

Src = target: T5, Src (Homo sapiens, UniProt P12931); assay: AlphaScreen kinase assay, Src; details: read-out: IC50, activity toward kinase Src
T5 construct: P1144. pET-N6 BI-PTP SRC V86-L536-X; made in house

Kit = target: T6, Kit (Homo sapiens, UniProt P10721); assay: AlphaScreen kinase assay, Kit; details: read-out: IC50, activity toward kinase Kit
T6 construct: P1332.N6 BI PTP KIT M552-K948-X COD; His6 (N); made in house; host or cells: E. coli (PTP1B co-expressed)

Ret = target: T7, Ret (Homo sapiens, UniProt P07949); assay: AlphaScreen kinase assay, Ret; details: read-out: IC50, activity toward kinase Ret
T7 construct: P1378.pET-SF BI-PTP RET H661-R1012 HIS; made in house
T7 sequence (P07949 with tags, fused parts or gaps): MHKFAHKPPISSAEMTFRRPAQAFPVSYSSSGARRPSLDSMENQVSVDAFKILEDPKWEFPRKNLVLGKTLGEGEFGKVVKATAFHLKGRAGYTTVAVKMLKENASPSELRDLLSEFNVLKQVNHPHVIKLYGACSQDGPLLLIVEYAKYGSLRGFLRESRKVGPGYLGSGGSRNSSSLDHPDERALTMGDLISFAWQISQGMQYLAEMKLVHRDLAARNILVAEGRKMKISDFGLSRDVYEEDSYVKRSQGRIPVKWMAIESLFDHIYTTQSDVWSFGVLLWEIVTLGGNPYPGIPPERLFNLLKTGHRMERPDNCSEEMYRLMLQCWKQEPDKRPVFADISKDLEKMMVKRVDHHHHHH

Flt1 = target: T8, Flt1 (Homo sapiens, UniProt P17948); assay: AlphaScreen kinase assay, Flt1; details: read-out: IC50, activity toward kinase Flt1
T8 construct: P1826.pETN6 BI-PTP FLT1 M799-D1165-X WT; His6 (N); made in house; host or cells: E. coli (PTP1B co-expressed)
T8 sequence (P17948 with tags, fused parts or gaps): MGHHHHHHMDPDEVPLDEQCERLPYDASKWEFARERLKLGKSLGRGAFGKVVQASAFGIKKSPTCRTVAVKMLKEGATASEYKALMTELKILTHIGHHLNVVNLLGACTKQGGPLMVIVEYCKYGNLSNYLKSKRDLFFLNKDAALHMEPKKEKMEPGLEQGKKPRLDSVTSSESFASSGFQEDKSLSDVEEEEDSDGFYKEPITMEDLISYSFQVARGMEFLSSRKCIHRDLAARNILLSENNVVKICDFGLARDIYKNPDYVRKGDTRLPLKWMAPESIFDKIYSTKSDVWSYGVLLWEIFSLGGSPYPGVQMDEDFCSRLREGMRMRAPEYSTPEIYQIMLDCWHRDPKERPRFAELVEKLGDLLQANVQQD

B-Raf = target: T9, B-Raf (Homo sapiens, UniProt P15056); assay: AlphaScreen kinase assay, B-Raf
T9 construct: purchased Upstate Biotechnology

Fms = target: T10, Fms (Homo sapiens, UniProt P07333); assay: AlphaScreen kinase assay, Fms; details: read-out: IC50, activity toward kinase Fms
T10 construct: purchased Upstate Biotechnology

Jnk3 = target: T11, Jnk3 (Homo sapiens, UniProt P53779); assay: AlphaScreen kinase assay, Jnk3; details: read-out: IC50, activity toward kinase Jnk3
T11 construct: purchased Upstate Biotechnology

c-Raf-1 = target: T12, c-Raf-1 (Homo sapiens, UniProt P04049); assay: AlphaScreen kinase assay, c-Raf-1; details: read-out: IC50, activity toward kinase c-Raf-1
T12 construct: purchased Upstate Biotechnology

FGFR1 = target: T13, FGFR1 (Homo sapiens, UniProt P11362, C488A/C584S); assay: AlphaScreen kinase assay, FGFR1; details: read-out: IC50, activity toward kinase FGFR
T13 construct: P1351.pET N6 BI-PTP FGFR A458-E765-X C488A, C584S; made in house; host or cells: E. coli (PTP1B co-expressed)

Zap70 = target: T14, Zap70 (Homo sapiens, UniProt P43403); assay: AlphaScreen kinase assay, Zap70; details: read-out: IC50, activity toward kinase Zap70
T14 construct: P1868.pFastBac1 ZAP70 D327-G606 HIS, WT; His7 (HHHHHHH) (C); made in house
T14 sequence (P43403 with tags, fused parts or gaps): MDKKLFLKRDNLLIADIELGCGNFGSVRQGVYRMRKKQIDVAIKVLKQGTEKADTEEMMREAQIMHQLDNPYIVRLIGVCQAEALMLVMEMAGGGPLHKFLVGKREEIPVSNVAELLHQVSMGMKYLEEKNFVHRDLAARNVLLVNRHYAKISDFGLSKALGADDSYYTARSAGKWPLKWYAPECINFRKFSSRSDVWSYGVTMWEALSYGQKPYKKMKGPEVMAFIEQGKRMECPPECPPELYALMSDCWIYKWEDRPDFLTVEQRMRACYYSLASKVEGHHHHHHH
In short: (§3)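 AlphaScreen read-out: acceptor-bead emission falls when kinase is inhibited. Biotin-peptide substrate captured on streptavidin donor beads, phospho-specific antibody on acceptor beads. 8 concentrations, 1:3 dilution series, from 20 mM DMSO stocks.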

Akt3 = Akt3 (Homo sapiens, UniProt Q9Y243); assay: AlphaScreen kinase assay, Akt3; details: read-out: IC50, activity toward kinase Akt3
In short: as §3

Jnk2 = target: T15, Jnk2 (Homo sapiens, UniProt P45984); assay: AlphaScreen kinase assay, Jnk2; details: read-out: IC50, activity toward kinase Jnk2
T15 construct: purchased Roche Protein Expression Group (Indianapolis, IN)
In short: as §3

Abl = target: T16, Abl (Homo sapiens, UniProt P00519); assay: AlphaScreen kinase assay, Abl; details: read-out: activity toward kinase Abl, IC50
T16 construct: P1121. pET-SPEC BI-PTP Abl G227-V515-X; His6 (N); made in house; host or cells: E. coli (PTP1B co-expressed)
T16 sequence (P00519 with tags, fused parts or gaps): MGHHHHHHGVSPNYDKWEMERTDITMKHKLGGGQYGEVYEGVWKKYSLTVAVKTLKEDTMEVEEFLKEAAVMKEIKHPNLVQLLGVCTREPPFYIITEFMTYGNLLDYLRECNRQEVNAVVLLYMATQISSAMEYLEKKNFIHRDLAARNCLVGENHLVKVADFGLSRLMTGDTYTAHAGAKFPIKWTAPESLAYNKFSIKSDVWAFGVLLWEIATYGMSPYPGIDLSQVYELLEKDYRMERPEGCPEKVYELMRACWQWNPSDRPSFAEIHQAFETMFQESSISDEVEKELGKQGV
Excerpt: as §1, §2

Kdr = target: T17, Kdr (Homo sapiens, UniProt P35968); assay: Z'-Lyte FRET kinase assay (Invitrogen), Kdr; details: read-out: IC50, activity toward kinase Kdr
T17 construct: purchased Invitrogen (assay run by Invitrogen)

Stk6 = target: T18, Stk6 (Homo sapiens, UniProt O14965); assay: Z'-Lyte FRET kinase assay (Invitrogen), Stk6; details: read-out: IC50, activity toward kinase Stk6
T18 construct: purchased Invitrogen (Carlsbad, Calif.), screening service
T18 sequence (O14965 1-403): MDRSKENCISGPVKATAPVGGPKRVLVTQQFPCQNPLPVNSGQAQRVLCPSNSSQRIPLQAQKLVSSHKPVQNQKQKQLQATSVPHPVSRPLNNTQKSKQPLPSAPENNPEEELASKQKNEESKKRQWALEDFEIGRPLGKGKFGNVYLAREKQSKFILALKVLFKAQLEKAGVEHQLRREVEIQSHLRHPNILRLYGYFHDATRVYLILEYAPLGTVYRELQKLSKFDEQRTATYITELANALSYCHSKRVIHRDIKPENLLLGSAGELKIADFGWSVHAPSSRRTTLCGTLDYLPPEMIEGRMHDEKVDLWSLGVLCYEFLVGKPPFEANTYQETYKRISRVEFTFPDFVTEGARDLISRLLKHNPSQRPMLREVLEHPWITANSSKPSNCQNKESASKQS

Pyk2 = target: T19, Pyk2 (Homo sapiens, UniProt Q14289); assay: AlphaScreen kinase assay, Pyk2; details: read-out: IC50, activity toward kinase Pyk2
T19 construct: purchased Upstate Biotechnology

MAP4K4 = MAP4K4 (Homo sapiens, UniProt O95819); assay: AlphaScreen kinase assay, MAP4K4; details: read-out: IC50, activity toward kinase MAP4K4
Protocol: AlphaScreen assays were done using compounds dissolved in DMSO to a concentration of 20 mM. The compounds were diluted accordingly to the desired final concentrations in each sample well, using 1:3 serial dilution for a total of 8 concentration points. Plates were prepared such that each kinase reaction is 20 μl in 1× kinase buffer, 5% DMSO and 10 μM ATP. After incubation of the kinase reaction for 1 hour at room temperature, 5 μl of donor beads in stop buffer (50 mM EDTA in 1× kinase buffer) was added, the sample was mixed and incubated for 20 minutes at room temperature before adding 5 μl of acceptor beads in stop buffer. The samples were incubated for 60 minutes at room temperature and the signal per well was read on AlphaQuest reader.

[1] = read-out: IC50, activity toward kinase B-Raf V600E
[2] = read-out: IC50, activity toward kinase B-Raf

Measured: IC50

T4 sequence (P45983 whole entry): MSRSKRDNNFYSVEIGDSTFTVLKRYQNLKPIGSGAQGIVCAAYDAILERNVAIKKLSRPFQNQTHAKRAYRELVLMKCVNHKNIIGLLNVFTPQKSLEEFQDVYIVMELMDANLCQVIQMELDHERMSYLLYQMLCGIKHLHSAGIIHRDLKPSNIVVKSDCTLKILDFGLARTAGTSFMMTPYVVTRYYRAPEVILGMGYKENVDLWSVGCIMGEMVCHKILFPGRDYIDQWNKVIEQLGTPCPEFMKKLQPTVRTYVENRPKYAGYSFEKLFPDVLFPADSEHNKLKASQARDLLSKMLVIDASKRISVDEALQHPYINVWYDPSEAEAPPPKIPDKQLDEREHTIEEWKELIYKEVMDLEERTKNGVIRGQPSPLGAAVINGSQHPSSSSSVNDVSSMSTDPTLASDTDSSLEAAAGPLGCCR
T15 sequence (P45984 whole entry): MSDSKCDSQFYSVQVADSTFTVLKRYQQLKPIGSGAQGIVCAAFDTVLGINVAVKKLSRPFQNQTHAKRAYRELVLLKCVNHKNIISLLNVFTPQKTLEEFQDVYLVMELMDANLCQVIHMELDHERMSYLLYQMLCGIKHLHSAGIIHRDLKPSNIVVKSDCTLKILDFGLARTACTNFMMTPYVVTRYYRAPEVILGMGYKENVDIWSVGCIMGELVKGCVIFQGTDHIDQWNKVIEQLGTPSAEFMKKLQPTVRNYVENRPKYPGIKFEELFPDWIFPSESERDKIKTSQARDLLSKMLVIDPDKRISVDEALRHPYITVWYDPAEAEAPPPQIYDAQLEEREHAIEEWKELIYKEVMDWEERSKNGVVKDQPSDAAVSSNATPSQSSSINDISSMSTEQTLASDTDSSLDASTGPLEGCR
T2 sequence (P08581 with tags, fused parts or gaps): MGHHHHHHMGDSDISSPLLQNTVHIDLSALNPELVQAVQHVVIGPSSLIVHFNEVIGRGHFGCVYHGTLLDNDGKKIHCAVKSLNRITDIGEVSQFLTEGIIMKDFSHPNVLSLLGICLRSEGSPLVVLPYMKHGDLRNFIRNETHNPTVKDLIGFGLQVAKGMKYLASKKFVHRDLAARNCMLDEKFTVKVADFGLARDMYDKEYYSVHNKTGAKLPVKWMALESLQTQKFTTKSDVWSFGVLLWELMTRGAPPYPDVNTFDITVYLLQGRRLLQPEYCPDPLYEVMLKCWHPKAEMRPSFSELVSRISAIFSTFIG
T13 sequence (P11362 458-765 C488A/C584S): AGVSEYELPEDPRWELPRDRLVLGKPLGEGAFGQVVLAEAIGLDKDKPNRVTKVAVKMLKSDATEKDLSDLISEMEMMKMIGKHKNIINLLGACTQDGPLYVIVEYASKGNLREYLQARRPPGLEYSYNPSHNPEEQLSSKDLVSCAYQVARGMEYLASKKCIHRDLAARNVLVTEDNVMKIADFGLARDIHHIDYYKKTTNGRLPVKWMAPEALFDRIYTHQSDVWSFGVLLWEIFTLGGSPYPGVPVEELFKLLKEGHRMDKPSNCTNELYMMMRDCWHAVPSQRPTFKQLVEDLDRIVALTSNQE
T6 sequence (P10721 with tags, fused parts or gaps): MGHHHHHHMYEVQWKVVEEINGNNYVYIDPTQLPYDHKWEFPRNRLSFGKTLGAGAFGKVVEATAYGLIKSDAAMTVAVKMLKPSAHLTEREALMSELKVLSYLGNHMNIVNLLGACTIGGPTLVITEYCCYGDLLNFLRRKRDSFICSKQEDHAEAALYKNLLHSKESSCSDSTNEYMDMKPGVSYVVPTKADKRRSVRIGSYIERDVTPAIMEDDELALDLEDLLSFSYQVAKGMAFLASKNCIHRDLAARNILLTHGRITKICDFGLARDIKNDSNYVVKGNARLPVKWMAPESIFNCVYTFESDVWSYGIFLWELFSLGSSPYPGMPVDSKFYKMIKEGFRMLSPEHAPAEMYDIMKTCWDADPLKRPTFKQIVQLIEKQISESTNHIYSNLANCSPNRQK
T10 sequence (P07333 20-972): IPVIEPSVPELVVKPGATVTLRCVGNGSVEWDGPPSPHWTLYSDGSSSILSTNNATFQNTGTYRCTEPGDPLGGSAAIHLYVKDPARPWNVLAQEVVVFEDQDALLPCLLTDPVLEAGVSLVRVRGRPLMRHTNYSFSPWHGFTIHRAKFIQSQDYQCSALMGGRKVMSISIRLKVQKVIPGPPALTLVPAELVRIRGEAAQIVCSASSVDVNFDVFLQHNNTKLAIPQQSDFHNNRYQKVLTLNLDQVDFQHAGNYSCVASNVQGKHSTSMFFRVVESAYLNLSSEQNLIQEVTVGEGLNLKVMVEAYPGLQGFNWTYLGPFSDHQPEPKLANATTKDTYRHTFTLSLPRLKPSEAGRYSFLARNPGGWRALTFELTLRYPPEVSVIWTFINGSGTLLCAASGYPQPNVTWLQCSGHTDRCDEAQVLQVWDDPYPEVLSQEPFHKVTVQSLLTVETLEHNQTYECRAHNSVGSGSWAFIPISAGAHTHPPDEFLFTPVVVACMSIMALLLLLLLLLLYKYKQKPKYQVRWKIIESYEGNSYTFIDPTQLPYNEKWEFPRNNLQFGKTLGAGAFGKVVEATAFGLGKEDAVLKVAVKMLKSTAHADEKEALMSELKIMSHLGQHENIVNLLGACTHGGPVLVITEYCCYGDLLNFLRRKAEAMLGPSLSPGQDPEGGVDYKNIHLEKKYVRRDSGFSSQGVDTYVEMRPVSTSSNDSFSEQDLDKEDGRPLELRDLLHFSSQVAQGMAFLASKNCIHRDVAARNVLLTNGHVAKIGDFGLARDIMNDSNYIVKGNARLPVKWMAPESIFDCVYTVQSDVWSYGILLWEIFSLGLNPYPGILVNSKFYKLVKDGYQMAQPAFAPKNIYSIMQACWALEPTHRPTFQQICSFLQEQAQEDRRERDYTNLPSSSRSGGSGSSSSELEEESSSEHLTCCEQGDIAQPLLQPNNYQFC
T3 sequence (P15056 with tags, fused parts or gaps V600E): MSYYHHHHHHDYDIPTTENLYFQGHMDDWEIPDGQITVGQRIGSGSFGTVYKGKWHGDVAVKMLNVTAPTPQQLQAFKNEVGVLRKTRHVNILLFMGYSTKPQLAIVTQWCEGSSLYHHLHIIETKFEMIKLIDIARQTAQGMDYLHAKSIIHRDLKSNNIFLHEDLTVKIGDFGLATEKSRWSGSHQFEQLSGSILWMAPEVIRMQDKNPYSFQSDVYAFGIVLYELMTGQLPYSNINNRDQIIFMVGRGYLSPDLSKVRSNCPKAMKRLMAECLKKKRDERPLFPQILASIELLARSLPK
T5 sequence (P12931 with tags, fused parts or gaps): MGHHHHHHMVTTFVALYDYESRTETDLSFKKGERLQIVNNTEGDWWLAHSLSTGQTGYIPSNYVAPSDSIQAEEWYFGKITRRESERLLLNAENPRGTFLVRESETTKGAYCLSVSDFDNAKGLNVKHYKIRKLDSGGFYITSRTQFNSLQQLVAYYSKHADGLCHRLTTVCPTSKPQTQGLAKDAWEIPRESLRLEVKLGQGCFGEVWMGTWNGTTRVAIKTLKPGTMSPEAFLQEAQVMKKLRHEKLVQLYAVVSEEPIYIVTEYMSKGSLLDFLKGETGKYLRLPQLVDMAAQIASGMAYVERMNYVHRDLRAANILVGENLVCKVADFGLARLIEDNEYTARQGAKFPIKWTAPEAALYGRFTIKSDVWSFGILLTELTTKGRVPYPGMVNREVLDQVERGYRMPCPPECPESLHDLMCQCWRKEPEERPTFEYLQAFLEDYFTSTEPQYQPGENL
T12 sequence (P04049 whole entry): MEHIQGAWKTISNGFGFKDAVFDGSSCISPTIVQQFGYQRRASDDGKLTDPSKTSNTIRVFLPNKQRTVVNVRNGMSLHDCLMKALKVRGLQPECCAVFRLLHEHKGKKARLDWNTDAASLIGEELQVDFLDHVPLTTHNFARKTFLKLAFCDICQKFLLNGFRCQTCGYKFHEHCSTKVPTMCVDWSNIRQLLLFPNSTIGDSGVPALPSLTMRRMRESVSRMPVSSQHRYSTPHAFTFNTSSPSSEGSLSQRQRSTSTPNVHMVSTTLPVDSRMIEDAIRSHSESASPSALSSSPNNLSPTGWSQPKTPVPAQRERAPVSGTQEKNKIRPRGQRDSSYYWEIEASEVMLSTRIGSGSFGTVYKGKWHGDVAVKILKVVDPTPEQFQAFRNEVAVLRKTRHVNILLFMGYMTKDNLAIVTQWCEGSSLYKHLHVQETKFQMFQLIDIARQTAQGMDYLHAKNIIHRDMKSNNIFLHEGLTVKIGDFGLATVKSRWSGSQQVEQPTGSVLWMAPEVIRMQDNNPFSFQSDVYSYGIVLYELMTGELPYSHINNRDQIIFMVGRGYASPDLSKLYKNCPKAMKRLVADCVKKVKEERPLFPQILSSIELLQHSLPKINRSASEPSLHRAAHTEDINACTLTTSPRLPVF
T1 sequence (Q05397 411-686): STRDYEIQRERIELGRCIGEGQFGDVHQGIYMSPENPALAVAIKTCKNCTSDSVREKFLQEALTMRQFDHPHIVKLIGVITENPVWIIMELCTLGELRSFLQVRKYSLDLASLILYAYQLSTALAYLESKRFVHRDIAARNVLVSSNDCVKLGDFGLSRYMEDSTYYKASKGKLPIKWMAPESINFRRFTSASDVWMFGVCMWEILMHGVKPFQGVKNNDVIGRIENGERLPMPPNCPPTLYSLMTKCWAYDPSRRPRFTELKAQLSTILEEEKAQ

NC(=O)c1cccc(-c2cnc3[nH]cc(C(=O)c4cc(O)ccc4F)c3c2)c1 [Compound P-0037, 3-[3-(2-Fluoro-5-hydroxy-benzoyl)-1H-pyrrolo[2,3-b]pyridin-5-yl]-benzamide]
≤ 10 µM: Fak | Met | B-Raf V600E; [1] | Jnk1 | Src | Kit | Ret | Flt1 | B-Raf; [2] | Fms | Jnk3 | c-Raf-1 | FGFR1 | Zap70 | Akt3

COc1cccc(Cc2c[nH]c3ncc(-c4ccc(N)cc4)cc23)c1 [Compound P-0140]
≤ 10 µM: Met | B-Raf V600E | Jnk1 | Jnk2 | Abl | Kdr | Kit | Ret | B-Raf | Stk6 | FGFR1

COc1cccc(Cc2c[nH]c3ncc(-c4cccnc4)cc23)c1F [Compound P-0269, 3-(2-Fluoro-3-methoxy-benzyl)-5-pyridin-3-yl-1H-pyrrolo[2,3-b]pyridine]
≤ 10 µM: Fak | Pyk2 | Met | B-Raf V600E; [1] | Jnk1 | Src | Jnk2 | MAP4K4 | Kdr | Kit | Ret | Flt1 | B-Raf; [2] | Stk6 | Fms | Jnk3 | c-Raf-1 | FGFR1

O=C(c1c(F)ccc(NS(=O)(=O)c2ccccc2)c1F)c1c[nH]c2ncc(-c3cccnc3)cc12 [Compound P-0685, N-[2,4-Difluoro-3-(5-pyridin-3-yl-1H-pyrrolo[2,3-b]pyridine-3-carbonyl)-phenyl]-benzenesulfonamide]
≤ 10 µM: Fak | Pyk2 | Met | B-Raf V600E; [1] | Jnk1 | Src | Jnk2 | MAP4K4 | Kit | Flt1 | B-Raf; [2] | Fms | c-Raf-1 | FGFR1

S=C(NCc1ccncc1)NCc1c[nH]c2ncccc12 [Compound P-0781]
≤ 10 µM: Met | Abl

S=C(NCc1cccnc1)NCc1c[nH]c2ncccc12 [Compound P-1012]
≤ 10 µM: Met | Abl
